Assay results: patent publication US20110136728A1, “METHODS OF INCREASING BONE FORMATION USING LEPTIN-RELATED PEPTIDES” (priority 2009, published 2011)
Non-standard residues stand in square brackets, D forms with d. Residues, ends and D or L forms follow the SMILES beside them.

Parameters: species or system male Swiss Webster mice
Details: mouse, in vivo
Protocol: Six week-old male Swiss Webster mice weighing approximately 30 g were obtained from Taconic Farms (Germantown, N.Y., USA). The animals were housed three per cage in polycarbonate cages fitted with stainless steel wire lids and air filters, and supported on ventilated racks (Thoren Caging Systems, Hazelton, Pa., USA) in the Albany Medical College Animal Resources Facility. The mice were maintained at a constant temperature (24° C.) with lights on from 07:00 to 19:00 h, and allowed food and water ad libitum until used for uptake studies. Mouse [[…]]OB3 was prepared commercially as a C-terminal amide by Bachem (Torrance, Calif., USA). For oral delivery, mouse [[…]]-OB3 was dissolved in either phosphate buffered saline (PBS, pH 7.2) or 0.3% […] Therapeutics, San Diego, Calif. USA) reconstituted in water, at a concentration of 1 mg/200 ul and administered by gavage. Is has been previously shown that this concentration to be optimum for regulating energy expenditure, glycemic control, and insulin sensitivity in two genetically obese mouse models. (See Grasso P. et al., Regulatory Pept. 101:123-9 (2001); Grasso P. et al., Regulatory Pept. 85:93-100 (1999); Grasso P. et al., Endocrinology 138:1413-8 (1997); Grasso P. et al., Diabetes 48:2204-9 (1999); and Rozhayskaya-Arena M. et al., Endocrinology 141:2501-7 (2000)). At time zero (0), 200 μl mouse [[…]]-OB3 in PBS or 0.3% […]® was delivered by gavage to each mouse. Following peptide administration, the mice were transferred to separate cages for the designated time period. Five, 10, 20, 40, 60, or 120 min after peptide delivery, the mice (six per time point) were anesthetized with isoflurane (5%) and exsanguinated by cardiac puncture. Euthanasia was confirmed by cervical dislocation. The blood was collected in sterile nonheparinized plastic centrifuge tubes and allowed to stand at room temperature for 1 h. The clotted blood was rimmed from the walls of the tubes with sterile wooden applicator sticks. Individual serum samples were prepared by centrifugation for 30 min at 2600×g in an Eppendorf […], A-4-38 rotor (Eppendorf North America, Westbury, N.Y., USA), The serum samples in each experimental group (n=6) were pooled and stored frozen until assayed for mouse [[…]]-OB3 content by competitive ELISA. Mouse [[…]]-OB3 content of the pooled serum samples was measured by a competitive ELISA developed and validated in our laboratory as previously described. (See Novakovic Z. et al., Regulatory Pept. 154:107-11 (2009)). Serum concentrations of mouse [[…]]OB3 vs. time following oral delivery were plotted using the graphics program SigmaPlot 8.0 (SPSS Science, Chicago, Ill., USA). The area under the curve (AUC) was calculated with a function of this program. The lowest AUC value obtained was arbitrarily set at 1.0. Relative bioavailabilty was determined by comparing all other AUC values to 1.0. The period of time required for the serum concentration of mouse [[…]]-OB3 to be reduced to exactly one-half of the maximum concentration achieved following oral administration of mouse [[…]]-OB3 in the absence or presence of […]® was calculated using the following equation: […] Clearance of mouse [[…]]-OB3 from the plasma following oral delivery was calculated from the AUC using the following equation: CL=Dose/AUC Since the half-life of a drug is inversely related to its clearance from the plasma and directly proportional to its volume of distribution, the apparent volume of distribution of mouse [[…]]-OB3 following oral delivery was calculated from its half-life and clearance using the following equation: […] The relative oral bioavailability of mouse [[…]]-OB3 delivered in […]® was compared to the relative bioavailabilities of intranasal and three commonly used injection methods of delivery recently reported. (See Oliveira Jr. V X. et al., J. Pept. Sci. 14:617-25 (2008)). […]

In the case of `CC(C)C[C@@H](NC(=O)[C@H](CO)NC(=O)[C@H](CS)NC(=O)[C@@H](N)CO)C(=O)N1CCC[C@H]1C(=O)N[C@@H](CCC(N)=O)C(=O)N[C@H](C(N)=O)[C@@H](C)O` [mouse [D-Leu-4]-OB3] (H-SCS[dL]PQT-NH2; N-terminus assumed), the Relative oral bioavailability is reported as 52.2%, the bioavailability (Relative oral bioavailability) is reported as 47.3% and the “Maximum uptake (Cmax) in Intravail relative to PBS” value (po, 1 mg) is reported as 3.6 fold. The “Plasma CL in PBS compared with Intravail” value (po, 1 mg) was “four times faster”, the Tmax (po, 1 mg) was 50 min and the “t1/2 (serum half-life)” value (po, 1 mg) was 20.15 min. The tmax (po, 1 mg) was 50 min.
